Where “and” joins values, the source holds several entries; their conditions need not be identical. Identical values can stand only once. Like-named read-outs stand apart in the source and are kept apart here.
What was measured:
A431 cells [1] = experiment: Mitochondrial reactive oxygen species generation during photodynamic irradiation, MitoSOX flow cytometry; format: cell-based, human; settings: MAL 1 mM + co-treatment 10 μM, 3 hours, irradiated
Method in brief: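 A431 cells received AP39-C10 (10, 100 or 1000 nM) for 5 h, MAL (1 mM) for 3 h and MitoSOX (2.5 μM) for 1 h, then were irradiated for 5 min (630 nm, 25 J/cm^2). Mitochondrial oxidant production was read immediately as MitoSOX fluorescence by flow cytometry and expressed as percent of untreated controls.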

thioredoxin reductase = biological target: T1, thioredoxin reductase (Homo sapiens, UniProt Q16881); settings: cited from earlier work
T1 sequence (Q16881 151-649 limits assumed): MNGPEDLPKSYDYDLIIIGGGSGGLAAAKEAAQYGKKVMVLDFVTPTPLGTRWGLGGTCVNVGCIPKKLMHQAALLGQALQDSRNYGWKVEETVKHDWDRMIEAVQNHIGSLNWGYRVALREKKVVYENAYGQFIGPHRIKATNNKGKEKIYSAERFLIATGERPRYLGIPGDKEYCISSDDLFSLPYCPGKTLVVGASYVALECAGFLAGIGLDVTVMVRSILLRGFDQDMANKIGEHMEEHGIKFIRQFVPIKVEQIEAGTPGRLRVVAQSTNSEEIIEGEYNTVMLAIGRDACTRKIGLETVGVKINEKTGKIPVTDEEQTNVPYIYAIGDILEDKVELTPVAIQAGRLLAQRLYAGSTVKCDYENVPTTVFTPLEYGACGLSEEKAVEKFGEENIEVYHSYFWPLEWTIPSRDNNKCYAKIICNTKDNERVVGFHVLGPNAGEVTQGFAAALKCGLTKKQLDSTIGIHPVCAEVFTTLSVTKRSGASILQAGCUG

A431 cells [2] = experiment: Photodynamic cell killing in the presence of inhibitors of the thioredoxin antioxidant system or nitroxides (annexin V-FITC/propidium iodide flow cytometry); format: cell-based, human
A431 cells [3] = tested on: A431 cells
Method in brief: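 In the PDT set-up, cells held at 2% O2 got 1 mM MAL with or without compound for 3 h, then 3 h recovery under 2% O2. Compound-alone cytotoxicity used cells seeded at 3×10^5/well for 24 h, treated for the relevant time.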

O=[N+]([O-])c1ccc(Cl)c([N+](=O)[O-])c1 [DNCB, 1-chloro-2,4-dinitrobenzene]
MitoSOX fluorescence, percentage of untreated cells (A431 cells [1]): 209.5±3.2%
inactivation of reduced thioredoxin reductase (thioredoxin reductase; 50 nM reduced enzyme, 5 minutes incubation with 100 μM DNCB, presence of NAD(P)H): Complete inactivation
inactivation of thioredoxin reductase faster than the alkylation of GSH (thioredoxin reductase): ~10,000 fold
modes of cell death (A431 cells [2]; 1 mM MAL + DNCB 10 μM or auranofin 100 nM + irradiation, compared to MAL and irradiation, FIG. 10): primarily increased necrotic cell death
cell death (A431 cells [2]; 1 mM MAL + co-treatment 10 μM, 3 h, irradiation): 46.3±4.0% and 43.8±3.9%
potentiating effect on MAL photodynamic cell killing (A431 cells [2]; summary of Examples 2A, 3A): mild potentiating effect
cell viability, percentage of untreated control (A431 cells [3]; 1 μM with 1 mM MAL, 3 hours): 97.4±6.9%
cell viability, percentage of untreated control (A431 cells [3]; 5 μM with 1 mM MAL, 3 hours): 99.4±7.3%
cell viability, percentage of untreated control (A431 cells [3]; 10 μM with 1 mM MAL, 3 hours): 98.6±6.2%
cell viability, percentage of untreated control (A431 cells [3]; 25 μM with 1 mM MAL, 3 hours): 79.0±4.3%
cell viability, percentage of untreated control (A431 cells [3]; 50 μM with 1 mM MAL, 3 hours): 57.7±1.4%
cell viability, percentage of untreated control (A431 cells [3]; 50 μM, 24 hours): 11.7±0.8%
cell viability, percentage of untreated control (A431 cells [3]; 100 μM, 24 hours): 14.8±4.2%
concentration up to which well tolerated / no cytotoxicity (A431 cells [3]; 24 hours): up to 10 μM

Source: patent US10149907B2, “Combinations of a photosensitizer with a hydrogen sulfide donor, thioredoxin inhibitor or nitroxide for use in photodynamic therapy” (UNIVERSITY OF EXETER, priority 2014, dated 2018)
